Results taken from patent US20160024083A1, “COMPOUNDS AND METHODS FOR TREATING CANCERS” (HEALTH RESEARCH, INC., priority 2013, published 2016).

Tests used:
CWR22R = test: cells; assay type: cell-based
Method: FIG. 21. Toxicity of PLA1055 to CWR22R cells in vitro depending on time of incubation. PLA1055 was added to CWR22R in full range of concentrations for the periods of time shown on the right. After that drug containing media were changed for drug free and survival of cells was detected at 72 hours after start of treatment using Alamar Blue assay (Promega).
This example provides a table (below) of the compounds of the present disclosure and their activity towards four different cell lines (i.e., CWR22R, HeLa, PC3, and MDA-MB-231). The IC50 for inhibition of growth is divided into 4 categories: A<1 μM, B 1-5 μM, C 5-20 μM, D>20 μM.
All compounds were tested for toxicity using 4 cells lines, target cells—CWR22R and non-target cells, Hela, PC3 and MDA-MB-231 (FIGS. 1A-F).
(§1) LC50 data of in vitro 72 hours cytotoxicity assay are included in this table for comparison.
An in vitro experiment was run to detect the concentration of PLA1055 needed to kill all tumor cells in vitro (LC90) during different periods of time (30 minutes-72 hours, FIG. 21)).

[1] = Plasma concentration (PK) after intravenous and intraperitoneal injections; assay type: in vivo; conditions: 50-100 mg/kg; for plasma concentration time course: after IV and IP injections; for bioavailability through IP injection: plasma concentrations similar or even higher after IP than IV
[2] = Tissue drug concentrations (tumor, liver, plasma) in treated CWR22R tumor-bearing mice; assay type: in vivo
Method: (§2) We tested these compounds in an in vivo efficacy experiment using model of CRPC in SCID mice, CWR22R. Two compounds, PLA1079 and 1125, which were synthesized in the amount of 500 mg were tested in full scale experiment with either 5 IV daily injections or 10 IP daily injections. After 5 IP or IV injections intra-tumor concentration of the compounds were measured in few mice from this experiment.
Two other compounds, PLA1148 and 1098 (PK testing in FIGS. 8 and 9) were tested in a small scale efficacy experiment. Upon PK testing of the compound PLA1148 one mouse was injected twice with 10 min interval. However the concentration of the drug in plasma of this mouse was not twice, but >4 times higher than in mice injected once. […] It was decided to utilize this observation in an attempt to get higher plasma and tumor concentration of both compounds. Therefore in the pilot efficacy experiment in the same model of CWR22R cells mice were treated with 2 IP injections with 10 minute interval. Treatment with PLA1098 was carried out for two days. […] However this is so far the highest concentration found in tumor. […]
as §1

CWR22R tumors = test: In vivo efficacy, subcutaneous xenografts of CWR22R cells in SCID mice
Method: as §2
(§3) Two other compounds, PLA1148 and 1098 (PK testing in FIGS. 8 and 9) were tested in a small scale efficacy experiment. Upon PK testing of the compound PLA1148 one mouse was injected twice with 10 min interval. However the concentration of the drug in plasma of this mouse was not twice, but >4 times higher than in mice injected once. […] It was decided to utilize this observation in an attempt to get higher plasma and tumor concentration of both compounds. Therefore in the pilot efficacy experiment in the same model of CWR22R cells mice were treated with 2 IP injections with 10 minute interval. Treatment with PLA1098 was carried out for two days. […] However this is so far the highest concentration found in tumor.
Pilot efficacy experiments were run for compounds: PLA1163, PLA1148 using the same model of subcutaneous xenografts of CWR22R cells in SCID mice (FIGS. 18 and 19).

Mdm2 = Mdm2 accumulation, Western Blot; assay type: cell-based; conditions: MCF7 cells with functionally inactive p53 (R175H, GSE56)
Method: Results of Western Blot analysis: CWR22r cells were treated with 1 uM c52 for indicated time intervals.
(§4) Also tested was the hypothesis that degradation of androgen receptor in prostate and breast cancer cells may be due to p53 induced accumulation of mdm2, which is also ubiquitin ligase for androgen receptor (FIG. 15). p53 was inactivated in several cell lines using different approaches what led to the blockade of mdm2 accumulation after c52 treatment. However androgen receptor was still degraded in c52 treated cells even in the absence of p53 activation and mdm2 accumulation (FIG. 16).

androgen receptor = test: Androgen receptor level / degradation in cells; assay type: cell-based; conditions: CWR22r or MCF7 cells with inhibited p53 activity
Description: as §4

Caveolin 1 = Caveolin 1 expression in sensitive versus resistant cells; assay type: cell-based; conditions: MDA MB 231 and MCF7 cells
Method: FIG. 12. Expression of Caveolinl in sensitive versus resistant cells. Caveolinl is expressed in resistant MDA MB 231 cells, but not in sensitive MCF7 cells.
Analysis of gene expression among 50 breast cancer cell lines differed in sensitivity as well as shRNA screening of resistant breast cancer cells identified Calveolin (FIG. 11) as a potential gene associated with resistance to c52. mRNA expression of Calveolin1 was tested among our sensitive and resistant cells as well as in response to c52 treatment. As expected Calveolin1 was expressed only in resistant cells, however it was not changed upon c52 treatment (FIG. 12). […] Calveolin1 was cloned in lentiviral expression vector and are now testing if overexpression of Calveolin1 in sensitive cells will make them resistant to c52 treatment.

p21 = p21 expression upon treatment; assay type: cell-based; conditions: sensitive cells
[3] = Toxicity / side effects in treated mice; assay type: in vivo
Method: as §3
This compound may be also potentially promising.

[4] = test system: presumable target protein; test: DARTS (Drug Affinity Responsive Target Stability) assay in CWR22r lysates; assay type: binding; conditions: protein lysates from CWR22r cells
Method: FIG. 24. DARTS (Drug Affinity Responsive Target Stability) assay was performed using c52 and PLA1118. According to this assay these compounds are capable of protecting presumable target protein from protease degradation. Protein lysates from sensitive CWR22r cells were incubated with or without the drug and subsequently digested with the indicated concentration of pronase. A. c52 was used (lane T-treated, M-marker) with indicated concentrations of pronase; ability of c52 to protect its target from protease cleavage was judged based on presence of protein band in the treated lane vs the untreated (UT) control.
Target identification through affinity chromatography and sensitivity to proteolysis methods was undertaken. […] These bands were excised from gel and sent for protein sequencing. (FIG. 24).

SMILES: CCCn1c2ccccc2c2cc(-c3nnco3)ccc21 [PLA1079]
- CC50 (CWR22R): 120 nM
- plasma concentration time course [1]: fast reduction of concentration during the first hour
- bioavailability through IP injection [1]: very high
- Tumor concentration ([2]; 100 mg/kg, IP/IV): 24 to 48 nM
- in vivo efficacy (CWR22R tumors; CWR22R in SCID mice, 5 IV daily injections or 10 IP daily injections): absence of in vivo efficacy
- Mdm2 level (Mdm2): Mdm2 is no longer overexpressed
- AR level (androgen receptor): AR is being degraded
- Caveolin1 expression upon treatment (Caveolin 1): did not change levels of Caveolinl expression
- p21 expression (p21): overexpression of p21 in sensitive cells

SMILES: CCCn1c2ccccc2c2c3c(ccc21)C(=O)N(C)C3 [PLA1098]
- CC50 (CWR22R): 40 nM
- plasma concentration time course [1]: fast reduction of concentration during the first hour
- bioavailability through IP injection [1]: very high
- Liver ([2]; 100 mg/kg, IP): 0 nM
- Tumor concentration ([2]; 100 mg/kg, IP): 23 to 25 nM
- Intratumor concentration ([2]; 2 tested tumors, 24 hours after last injection): 25 nM
- compound in liver ([2]; 24 hours after last injection): no detectable
- compound in plasma ([2]; 24 hours after last injection): no detectable
- tumor volume and tumor weight vs vehicle control (CWR22R tumors; CWR22R, 2 IP injections with 10 minute interval for two days, 12 days after treatment): certain reduction of tumor volume and tumor weigh in the 1098 treated group vs vehicle control, but not statistically significant
- in vivo efficacy (CWR22R tumors; summary statement): evidence of in vivo efficacy
- side effects during treatment ([3]; 2 IP injections with 10 minute interval, two days): no signs of side effects
- signs of toxicity ([3]; summary statement): without any signs of toxicity
- protection of target protein from pronase degradation [4]: protected their targets from degradation
